Data on nine compounds can be found in article PMC9168383, “Structural and functional insights into the DNA damage-inducible protein 1 (Ddi1) from protozoa” (Current Research in Structural Biology, 2022).

Ends that are not written are not given here.

The target in assay [1] is T1, CrypDdi1-RVP (Cryptosporidium hominis, UniProt A0A0S4TE75). The assay is described as follows: Bio-layer interferometry (BLI), CrypDdi1-RVP. The assay is classed as binding, C. hominis. Particulars: inhibitor 75-600 μM; for binding of inhibitor to CrypDdi1-RVP: MES pH 5.5. (In general: BLI is a label-free optical method that tracks binding on a fibre tip over time.)
T1 sequence (A0A0S4TE75 entry or part of it): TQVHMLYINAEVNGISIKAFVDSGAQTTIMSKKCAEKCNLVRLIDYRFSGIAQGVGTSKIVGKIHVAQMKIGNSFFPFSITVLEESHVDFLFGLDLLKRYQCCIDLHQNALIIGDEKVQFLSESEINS
The target of assay [2] is T2, ToxoDdi1-RVP (Toxoplasma gondii, UniProt S7W9N7). The assay can be described thus: FRET activity assay with HIV protease substrate-1 and inhibition by HIV protease inhibitors, ToxoDdi1-RVP. The assay is classed as biochemical, T. gondii. The procedure:
(§1) The activity assay was carried out using HIV protease substrate-1 (Sigma-aldrich). […] It contains the HIV protease cleavage site (Tyr-Pro) and two covalently modified amino acids for the detection of the proteolytic activity: the fluorophore EDANS was attached to the glutamic acid residue on the N-terminal side and the acceptor chromophore DABCYL to the lysine residue on the C-terminal side of the scissile bond. EDANS excited with light at 340 nm emits light at 490 nm which gets absorbed by the DABCYL group. Cleavage of the peptide separates the modified amino acids quenching FRET and emission could be detected at 490 nm ToxoDdi1-RVP and CrypDdi1-RVP were added in different concentrations to 2 μM of HIV protease substrate-1 in a buffer containing 0.1M sodium acetate pH 4.5, 1.0 M sodium chloride, 1.0 mM EDTA, 1.0 mM DTT and 10% DMSO. […] All the samples were incubated at 37 °C for 1 h and the fluorescence emission was recorded at 490 nm.

In assay [3] the test system is human Ddi2. Particulars: ref Gu et al., 2020, Fassmannova et al.; cited from earlier work.
Assay [4] has as its system T. gondii. Particulars: ref Wang et al., 2019; cited from earlier work.
For assay [5], the target named is T2, ToxoDdi1-RVP. The assay can be described thus: biochemical. The assay is classed as binding.
The target of assay [6] is T1, CrypDdi1-RVP. The assay is described as follows: FRET activity assay with HIV protease substrate-1 and inhibition by HIV protease inhibitors, CrypDdi1-RVP. Type of assay: biochemical, C. hominis. The procedure: as §1
The target of assay [7] is T2, ToxoDdi1-RVP. The assay is described as follows: HPLC cleavage of HIV protease substrate-1 by ToxoDdi1-RVP. Type of assay: biochemical, T. gondii. Particulars: 10 μM substrate, 22 μg/ml ToxoDdi1-RVP, 100 mM sodium acetate pH 4.7, 1 M NaCl, 1 mM DTT, 37 °C, UV 490 nm.
In assay [8] the target is T1, CrypDdi1-RVP. The assay is described as follows: HPLC cleavage of HIV protease substrate-1 by CrypDdi1-RVP. The assay is classed as biochemical, C. hominis. Particulars: 10 μM substrate, 22 μg/ml CrypDdi1-RVP, UV 490 nm.
Assay [9] has as its target CrypDdi1-RVP (Cryptosporidium hominis). The assay can be described thus: crystal structure; CrypDdi1-RVP, microbatch, 8 mg/ml, 0.1 M MES-sodium hydroxide pH 6.0, 30% polyacrylate sodium salt, 10% ethanol, 291 K; space group H32, one molecule in the asymmetric unit, dimer by crystallographic 2-fold symmetry.
Assay [10] deals with T3, LeishDdi1-fl (Leishmania major, UniProt I7HUG0).
T3 construct: The full length Ddi1 construct, LeishDdi1-fl (1–390 aa) was cloned in pET-28a vector; hexa-histidine (N); made in house; host or cells: E. coli BL-21
T3 sequence (I7HUG0 whole entry, the tested form may be a part): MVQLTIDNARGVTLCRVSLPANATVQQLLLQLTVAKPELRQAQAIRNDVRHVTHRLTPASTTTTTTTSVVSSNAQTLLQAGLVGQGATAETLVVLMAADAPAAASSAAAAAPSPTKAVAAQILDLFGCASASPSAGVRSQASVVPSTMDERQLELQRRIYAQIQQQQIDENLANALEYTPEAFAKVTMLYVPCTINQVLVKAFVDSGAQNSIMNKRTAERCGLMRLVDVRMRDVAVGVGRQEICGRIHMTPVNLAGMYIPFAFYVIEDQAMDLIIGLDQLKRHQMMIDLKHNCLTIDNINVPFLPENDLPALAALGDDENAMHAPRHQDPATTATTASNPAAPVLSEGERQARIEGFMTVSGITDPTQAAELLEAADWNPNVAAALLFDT
The assay can be described thus: BLI binding of peptides to LeishDdi1-fl. Also noted: species or system L. major. Particulars: 5 mM peptide immobilized on AR2G tip, LeishDdi1-fl in solution, 20 mM HEPES pH 7.5, 100 mM NaCl, 10 min, 1:1 Langmuir.

Assay [11] deals with ToxoDdi1-RVP (Toxoplasma gondii). The assay is described as follows: crystal structure; ToxoDdi1-RVP, microbatch, 8 mg/ml, 1.8 M ammonium citrate tribasic pH 7.0, 30% 2-propanol, 291 K; space group P41212, six dimers in the asymmetric unit.

T2 sequence (S7W9N7 entry or part of it): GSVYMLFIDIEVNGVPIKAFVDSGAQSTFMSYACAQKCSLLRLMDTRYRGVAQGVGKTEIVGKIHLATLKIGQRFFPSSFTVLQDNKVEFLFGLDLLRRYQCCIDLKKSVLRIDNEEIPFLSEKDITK

Turning to `CC(C)(C)NC(=O)[C@@H]1CN(Cc2cccnc2)CCN1C[C@@H](O)C[C@@H](Cc1ccccc1)C(=O)N[C@H]1c2ccccc2C[C@H]1O` [indinavir], the “binding of inhibitor to CrypDdi1-RVP” value in assay [1] is “do not bind”.
On to `Cc1c(O)cccc1C(=O)N[C@@H](CSc1ccccc1)[C@H](O)CN1C[C@H]2CCCC[C@H]2C[C@H]1C(=O)NC(C)(C)C` [nelfinavir], for which the “effect on proteolytic activity of ToxoDdi1-RVP” value in assay [2] (500 μM inhibitor, 20 μM ToxoDdi1-RVP, 2 μM HIV protease substrate-1, 0.1M sodium acetate pH 4.5, 1.0 M NaCl, 1.0 mM EDTA, 1.0 mM DTT, 10% DMSO, 37 °C, 1 h, emission 490 nm) was “has an inhibitory effect on the proteolytic activity of ToxoDdi1-RVP”. In addition, the “fluorescence intensity in the presence of inhibitor, ToxoDdi1-RVP” value in [2] (500 μM inhibitor, 20 μM ToxoDdi1-RVP, FRET, 490 nm, 37 °C, 1 h) is recorded as “did not increase”. Moreover, the “inhibition of human Ddi2 activity” value in assay [3] is on record as “ability to inhibit the activity of human Ddi2”. For the same compound, the “growth of T. gondii” value in assay [4] was “inhibit the growth of T. gondii”. This compound registered a Kd in [5] of 238 ± 6.3 µM. The “binding of inhibitor to CrypDdi1-RVP” value in assay [1] is recorded as “do not bind”.
`CC(C)c1nc(CN(C)C(=O)N[C@H](C(=O)N[C@@H](Cc2ccccc2)C[C@H](O)[C@H](Cc2ccccc2)NC(=O)OCc2cncs2)C(C)C)cs1` [ritonavir]: the “growth of T. gondii” value in assay [4] was “inhibit the growth of T. gondii”.
Take `CC(C)(C)NC(=O)[C@@H]1C[C@@H]2CCCC[C@@H]2CN1C[C@@H](O)[C@H](Cc1ccccc1)NC(=O)[C@H](CC(N)=O)NC(=O)c1ccc2ccccc2n1` [saquinavir]: the “effect on proteolytic activity of CrypDdi1-RVP” value in assay [6] (500 μM inhibitor, 20 μM CrypDdi1-RVP, 2 μM HIV protease substrate-1, 0.1M sodium acetate pH 4.5, 1.0 M NaCl, 1.0 mM EDTA, 1.0 mM DTT, 10% DMSO, 37 °C, 1 h, emission 490 nm) is given as “has an inhibitory effect on the proteolytic activity of CrypDdi1-RVP”. For the same compound, in assay [6] (500 μM inhibitor, 20 μM CrypDdi1-RVP, FRET, 490 nm, 37 °C, 1 h), the “fluorescence intensity in the presence of inhibitor, CrypDdi1-RVP” value is “did not increase”. Moreover, in [5] (BLI, inhibitor 75-600 μM, MES pH 5.5), the “binding of inhibitor to ToxoDdi1-RVP” value was “do not bind”. This compound also had a Kd in assay [1] (Octet Red96, His-tagged CrypDdi1-RVP on Ni-NTA tip, 100 mM MES pH 5.5, 150 mM NaCl, 0.5% BSA, 0.05% Tween 20, 3 min, 1:1 Langmuir) of 242 ± 3 µM.
For the compound “Arg-Glu(EDANS)-Ser-Gln-Asn-Tyr-Pro-Ile-Val-Gln-Lys(DABCYL)-Arg [HIV protease substrate-1, synthetic FRET peptide containing the HIV protease cleavage site (Tyr-Pro), Sigma-aldrich]”, the “substrate cleavage: fluorescence intensity with increasing protein concentration, ToxoDdi1-RVP” value in assay [2] (2 μM substrate, no inhibitor, different ToxoDdi1-RVP concentrations) is reported as “An increase in the fluorescence intensity was observed with increasing protein concentration”. Besides, the “substrate cleavage: fluorescence intensity with increasing protein concentration, CrypDdi1-RVP” value in [6] (2 μM substrate, no inhibitor, different CrypDdi1-RVP concentrations) is given as “An increase in the fluorescence intensity was observed with increasing protein concentration”. For the same compound, in assay [7], the “substrate cleavage by HPLC, ToxoDdi1-RVP, 1 h” value is listed as “completely cleaved”. Also, the “substrate cleavage by HPLC, CrypDdi1-RVP, 1 h” value in assay [8] (100 mM sodium acetate pH 4.7, 1 M NaCl, 1 mM DTT, 37 °C, 1 h) is given as “completely cleaved”. Further, in assay [8] (pH 4.7, 37 °C, 30 min), the “substrate cleavage by HPLC, CrypDdi1-RVP, 30 min” value was “both the substrate and the product were detected”.
With CrypDdi1-RVP (domain or fragment), the stoichiometry N in assay [9] was found to be 2.
GVGRQEI [GVGRQEI]: binding in assay [10] was characterised by a dissociation constant (Kd) of 25.3 ± 3.5 µM.
On the same count and under the same terms, the result for MIWRKPW [MIWRKPW] reads 2.8 ± 1.5 µM.
Turning to ToxoDdi1-RVP (domain or fragment), the stoichiometry N in assay [11] was determined as 2.

The Kd is a measure of binding affinity in units of concentration. A higher Kd goes with weaker binding. By stoichiometry N is commonly meant the number of molecules, sites or subunits per partner or assembly.
